Test results: patent US11266650B2, “Pharmaceutical composition for preventing and treating nonalcoholic steatohepatitis, hepatic fibrosis, and liver cirrhosis, comprising adenosine derivatives” (FUTURE MEDICINE CO., LTD., priority 2016, dated 2022)
Where “and” joins values, the source holds several entries; their conditions need not be identical. Equal entries are not always repeated.

Experiments:
[1] = system: rats; assay: Single-dose toxicity in rats; settings: rat, in vivo
[2] = Pharmacokinetic test in dogs (Experimental Example 14); format: in vivo; settings: dog, plasma; for bioavailability: read-out: Ft (bioavailability)
Procedure: (§1) Intravenous administration was performed through a tube inserted into the femoral vein, and oral administration was performed using oral gavage.
(§2) After the administration, the experimental animals' blood was taken at predetermined time intervals for 24 hours. Then, the blood was centrifuged to separate plasma. The plasma samples were pretreated with a suitable organic solvent, and then the concentration of the plasma samples was analyzed by LC-MS/MS. […] The results of noncompartmental pharmacokinetic parameters calculated from the blood concentration-time data are shown in Tables 9 through 13. In FIGS. 12 through 16, I.V. represents an intravenous administration group, P.O. represents an oral administration group, and the definition of each parameter in Tables 9 through 13 is shown in Table 14.

[3] = system: histidine-requiring Salmonella (strains TA98, TA100, TA1535 and TA1537) and tryptophan-requiring Escherichia coli (strain WP2uvrA (pKM101)); format: cell-based
From the text: In addition, for each strain, the number of back-mutant colonies in the positive control group certainly exceeded twice the number of back-mutant colonies in the negative control group.

[4] = pKa; format: physicochemical
[5] = Plasma protein binding, rat plasma; format: in vitro ADME
Procedure: (§3) Plasma stability and protein binding were measured using rat and human plasma.

[6] = Pharmacokinetic test in SD male rats (Experimental Examples 11, 12, 15); format: in vivo; settings: plasma, rat; for Vd: read-out: Vss; for bioavailability: read-out: Ft (bioavailability)
Procedure: as §1, §2

[7] = Log P; format: physicochemical
[8] = Pharmacokinetic test in ICR male mice (Experimental Example 13); format: in vivo; settings: mouse, plasma, po, P.O., 10 mg/kg
Procedure: as §1, §2

[9] = Plasma stability, human plasma; format: in vitro ADME
Procedure: as §3

[10] = system: each cell line; assay: Cytotoxicity, Cyto X cell viability assay kit; format: cell-based
[11] = PAMPA; format: in vitro ADME
[12] = system: SPF Sprague Dawley rats; assay: Toxicity assay, intraperitoneal injection, rats; settings: i.p. 20, 10 and 1 mg/kg
Procedure: (§4) The compounds synthesized in the examples of the present invention were assayed for cytotoxicity in animals.

[13] = Kinetic solubility; format: physicochemical; settings: kinetic from dmso stock
[14] = Plasma protein binding, human plasma; format: in vitro ADME
Procedure: as §3

[15] = Plasma stability, rat plasma; format: in vitro ADME
Procedure: as §3

[16] = system: rats; settings: rat, in vivo
[17] = Equilibrium solubility; format: physicochemical; settings: thermodynamic from solid
[18] = system: ICR mice; assay: Toxicity assay, intraperitoneal injection, mice; settings: i.p. 20, 10 and 1 mg/kg
Procedure: as §4

[19] = target: hERG channel protein (Homo sapiens, UniProt Q12809); assay: hERG ligand binding assay (fluorescence polarization)
[20] = target: T1, human A3 adenosine receptor (Homo sapiens, UniProt P0DMS8); assay: Antagonism of Cl-IB-MECA and cAMP inhibition in CHO cells expressing human A3 adenosine receptor; format: cell-based; settings: CHO cells expressing hA3 AR, various concentrations
T1 construct: expressed in transfected cells; host or cells: CHO cells
T1 sequence (P0DMS8 1-318): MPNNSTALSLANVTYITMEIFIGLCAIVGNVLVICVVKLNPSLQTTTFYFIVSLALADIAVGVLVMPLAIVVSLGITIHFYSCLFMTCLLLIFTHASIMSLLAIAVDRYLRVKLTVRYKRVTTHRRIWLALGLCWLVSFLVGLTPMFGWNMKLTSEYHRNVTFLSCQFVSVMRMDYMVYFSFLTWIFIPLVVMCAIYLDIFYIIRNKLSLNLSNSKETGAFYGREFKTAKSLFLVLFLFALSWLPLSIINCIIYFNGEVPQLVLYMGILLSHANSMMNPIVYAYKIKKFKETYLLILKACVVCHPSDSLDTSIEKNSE

[21] = target: T2, human A2B adenosine receptor (Homo sapiens, UniProt P29275); assay: Agonist or antagonist activity on human A2B adenosine receptor; format: biochemical
T2 sequence (P29275 1-332): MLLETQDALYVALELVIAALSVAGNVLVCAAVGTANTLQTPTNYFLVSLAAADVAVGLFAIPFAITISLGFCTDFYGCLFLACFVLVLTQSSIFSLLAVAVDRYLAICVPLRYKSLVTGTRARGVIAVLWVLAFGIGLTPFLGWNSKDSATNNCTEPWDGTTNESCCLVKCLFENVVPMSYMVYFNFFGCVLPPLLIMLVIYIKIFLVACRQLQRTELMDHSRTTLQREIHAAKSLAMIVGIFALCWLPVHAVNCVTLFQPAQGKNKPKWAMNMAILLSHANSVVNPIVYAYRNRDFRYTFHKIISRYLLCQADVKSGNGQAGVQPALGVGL

[22] = po, 10 mg/kg, G2, PO, dissolved in a solvent
[23] = po, 10 mg/kg, G3, PO, powder state in a capsule
[24] = po, 5 mg/kg, P.O., 5 mg/kg (Exp. 11-2)
[25] = po, 10 mg/kg, 10 mg/kg (Exp. 12-2)
[26] = po, 10 mg/kg, oral 10 mg/kg in 0.5% MC (Exp. 15-1)
[27] = po, 10 mg/kg, oral 10 mg/kg in Vehicle: 5% DMSO, 40% PEG400 and 55% DW (Exp. 15-2)

Chain of hERG channel protein (Q12809 whole entry): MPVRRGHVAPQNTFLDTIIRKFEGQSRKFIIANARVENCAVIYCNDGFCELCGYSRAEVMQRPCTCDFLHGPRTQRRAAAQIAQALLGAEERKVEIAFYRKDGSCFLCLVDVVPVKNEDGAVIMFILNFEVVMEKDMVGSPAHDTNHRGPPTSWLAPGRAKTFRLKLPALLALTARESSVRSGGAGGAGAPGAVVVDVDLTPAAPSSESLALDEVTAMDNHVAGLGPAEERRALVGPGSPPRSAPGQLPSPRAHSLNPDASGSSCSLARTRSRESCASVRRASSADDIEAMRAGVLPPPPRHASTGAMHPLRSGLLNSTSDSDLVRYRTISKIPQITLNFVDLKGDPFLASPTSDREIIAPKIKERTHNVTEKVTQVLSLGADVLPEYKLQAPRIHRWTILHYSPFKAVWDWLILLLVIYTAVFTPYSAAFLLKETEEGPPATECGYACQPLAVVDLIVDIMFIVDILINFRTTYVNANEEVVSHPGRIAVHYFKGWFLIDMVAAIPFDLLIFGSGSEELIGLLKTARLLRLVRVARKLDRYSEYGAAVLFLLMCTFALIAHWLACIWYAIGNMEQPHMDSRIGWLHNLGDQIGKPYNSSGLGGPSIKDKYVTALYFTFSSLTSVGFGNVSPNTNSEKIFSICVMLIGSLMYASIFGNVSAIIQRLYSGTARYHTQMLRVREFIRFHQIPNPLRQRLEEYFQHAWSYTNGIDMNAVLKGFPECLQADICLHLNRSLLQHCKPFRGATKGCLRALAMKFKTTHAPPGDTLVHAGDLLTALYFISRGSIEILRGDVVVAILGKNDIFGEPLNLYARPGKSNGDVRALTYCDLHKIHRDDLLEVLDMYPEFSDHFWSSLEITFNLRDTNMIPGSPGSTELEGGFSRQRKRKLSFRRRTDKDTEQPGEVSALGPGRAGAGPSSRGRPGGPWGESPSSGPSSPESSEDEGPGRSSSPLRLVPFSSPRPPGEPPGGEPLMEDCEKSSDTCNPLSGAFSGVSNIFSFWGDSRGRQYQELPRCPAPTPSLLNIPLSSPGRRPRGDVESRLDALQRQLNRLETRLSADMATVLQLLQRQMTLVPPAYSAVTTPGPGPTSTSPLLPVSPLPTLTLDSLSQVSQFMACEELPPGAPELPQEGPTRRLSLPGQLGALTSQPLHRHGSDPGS

Compound: O[C@@H]1[C@H](O)CS[C@H]1n1cnc2c(NCc3cccc(Cl)c3)nc(Cl)nc21 [Example 2, (2R,3R,4S)-2-(2-Chloro-6-(3-chlorobenzylamino)-9H-purin-9-yl)tetrahydrothiophen-3,4-diol]
- Toxicity, Single-dose toxicity evaluation [1]: Not detected
- AUC(0-inf) ([2]; iv, 2 mg/kg, G1, IV): 1070 ± 620 ng·h/mL
- AUC(0-t) ([2]; iv, 2 mg/kg, G1, IV): 948 ± 464 ng·h/mL
- half-life ([2]; iv, 2 mg/kg, G1, IV): 2.17 ± 0.867 h
- bioavailability ([2]; po, 10 mg/kg, G2, PO, 10 mg/kg, dissolved in a solvent): 82%
- AUC(0-inf) [2, 22]: 3990 ± 1090 ng·h/mL
- AUC(0-t) [2, 22]: 3880 ± 1030 ng·h/mL
- Cmax [2, 22]: 467 ± 73 ng/mL
- Tmax [2, 22]: 1.67 ± 0.58 h
- half-life [2, 22]: 4.21 ± 1.41 h
- bioavailability ([2]; po, 10 mg/kg, G3, PO, 10 mg/kg, powder state in a capsule): > 99.9%
- AUC(0-inf) [2, 23]: 6350 ± 830 ng·h/mL
- AUC(0-t) [2, 23]: 5640 ± 840 ng·h/mL
- Cmax [2, 23]: 1140 ± 230 ng/mL
- Tmax [2, 23]: 2 h
- half-life [2, 23]: 5.53 ± 3.06 h
- clearance ([2]; G1, IV, 2 mg/kg): 37.8 mL/min/kg
- Vd ([2]; G1, IV, 2 mg/kg, read-out: Vss): 6.02 ± 0.79 L/kg
- Toxicity, Genotoxicity evaluation [3]: Not detected
- number of back-mutant colonies vs negative control group ([3]; all doses of each strain, with and without metabolic activation): did not exceed twice the number of back-mutant colonies of the negative control group
- pKa [4]: 11.3
- fraction unbound [5]: 0.098
- clearance ([6]; iv, I.V., 5 mg/kg): 6.05 mL/min/kg
- Vd ([6]; iv, I.V., 5 mg/kg): 0.881 ± 0.203 L/kg
- bioavailability ([6]; po, P.O., 5 mg/kg): 49.7%
- clearance ([6]; IV, 2 mg/kg): 6.08 mL/min/kg
- Vd ([6]; IV, 2 mg/kg): 2.27 ± 0.863 L/kg
- bioavailability ([6]; PO, 10 mg/kg (Exp. 12-2)): > 99.9%
- AUC(0-inf) ([6]; iv, 2 mg/kg): 5490 ± 300 ng·h/mL
- AUC(0-t) ([6]; iv, 2 mg/kg): 5200 ± 548 ng·h/mL
- half-life ([6]; iv, 2 mg/kg, 2 mg/kg (Exp. 12-1)): 6 ± 2.98 h
- AUC(0-inf) ([6]; iv, 5 mg/kg, I.V.): 14100 ± 2590 ng·h/mL
- AUC(0-t) ([6]; iv, 5 mg/kg, I.V.): 14000 ± 2550 ng·h/mL
- half-life ([6]; iv, 5 mg/kg, I.V., 5 mg/kg (Exp. 11-1)): 3.6 ± 0.589 h
- AUC(0-inf) ([6]; po, 5 mg/kg, P.O.): 7040 ± 551 ng·h/mL
- AUC(0-t) ([6]; po, 5 mg/kg, P.O.): 6980 ± 584 ng·h/mL
- Cmax [6, 24]: 1450 ± 255 ng/mL
- Tmax [6, 24]: 1.33 ± 0.577 h
- half-life [6, 24]: 3.26 ± 0.945 h
- AUC(0-inf) [6, 25]: 26700 ± 75 ng·h/mL
- AUC(0-t) [6, 25]: 26500 ± 5880 ng·h/mL
- Cmax [6, 25]: 2710 ± 183 ng/mL
- Tmax [6, 25]: 2.42 ± 3.13 h
- half-life [6, 25]: 3.34 ± 0.075 h
- AUC(0-inf) [6, 26]: 41400 ± 26000 ng·h/mL
- AUC(0-t) [6, 26]: 40100 ± 26800 ng·h/mL
- Cmax [6, 26]: 5720 ± 6110 ng/mL
- Tmax [6, 26]: 1.33 ± 0.58 h
- half-life [6, 26]: 4.56 ± 2.8 h
- AUC(0-inf) [6, 27]: 26700 ± 75 ng·h/mL
- AUC(0-t) [6, 27]: 26500 ± 5880 ng·h/mL
- Cmax [6, 27]: 2710 ± 183 ng/mL
- Tmax [6, 27]: 2.42 ± 3.13 h
- half-life [6, 27]: 3.34 ± 0.075 h
- logP [7]: 3.18
- AUC(0-inf) [8]: 102000 ± 13500 ng·h/mL
- AUC(0-t) [8]: 100000 ± 13200 ng·h/mL
- Cmax [8]: 8570 ± 1520 ng/mL
- Tmax [8]: 6.13 ± 3.75 h
- half-life [8]: 3.61 ± 0.3 h
- Plasma stability [9]: 98.9%
- Toxicity, Cytotoxicity evaluation [10]: Not detected
- IC50 ([10]; each cell line): ≥ 10 µM
- PAMPA [11]: −4.49
- weight gain or feed intake vs control group [12]: No difference in weight gain or feed intake
- death ([12]; 24 hrs observation): No death was observed
- solubility kinetic [13]: 361 µM and 149 µg/mL
- fraction unbound [14]: 0.013
- Plasma stability [15]: > 99.9%
- death after single dose [16]: no animals died
- solubility thermodynamic [17]: 6.7 µM and 2.76 µg/mL
- weight gain or feed intake vs control group [18]: No difference in weight gain or feed intake
- death ([18]; 24 hrs observation): No death was observed
- Toxicity, hERG ligand binding assay evaluation [19]: Not detected
- inhibition rate, hERG ligand binding ([19]; 10 μM of the compound): ≤ 50%

Compound: O[C@@H]1[C@H](O)CS[C@H]1n1cnc2c(NCc3cccc(I)c3)nc(Cl)nc21 [Example 4, (2R,3R,4S)-2-(2-Chloro-6-(3-iodobenzylamino)-9H-purin-9-yl)tetrahydrothiophen-3,4-diol]
- inhibition of the agonist effect of Cl-IB-MECA [20]: inhibited in a dose-dependent manner
- agonist or antagonist on human A2B adenosine receptor [21]: not observed as an agonist or antagonist
